In brackets after ≈: the same amount, converted by molar mass. Where two headings read alike, the source gives them in different places. Square brackets hold non-standard residues; d marks the D form. Peptide text beside a SMILES is read from it. Orn = NCCC[C@H](N)C(=O)O

A short description of series [1]: pH-solubility of polypeptide variants. Format: physicochemical. The note with it: read-out: pH-solubility, Concentration; for solubility thermodynamic at 3 min: a: precipitate, supernatant assayed; for solubility at 3 min: b: high viscous solution, aliquot assayed. The procedure: (§1) Solubility study of variants was performed by adding variants powders into solvent in concentration of 5 mg/ml and then vortexing for 3 min. Observe the appearance of solutions in 5 min. Add more powder (˜5 mg/ml each time) and repeat vortex and observe until precipitation or gelation occurs.

Series [2] can be described thus: Appearance of solutions in solubility study of variants. Format: physicochemical. The procedure:
as §1

With `CC[C@H](C)[C@H](NC(=O)CNC(=O)[C@@H](N)CC(=O)O)C(=O)N[C@@H](Cc1c[nH]c2ccccc12)C(=O)N[C@@H](CCCCN)C(=O)N[C@@H](C)C(=O)N[C@@H](CO)C(=O)N[C@@H](Cc1ccccc1)C(N)=O` [SEQ ID NO.21] (H-DGIWKASF-NH2), the solubility thermodynamic at 3 min in series [1] (pH 4.5) was determined as 0.62 ± 0.04 mg/mL (≈ 0.672 mM); in series [1] (pH 5.5), 0.14 ± 0.02 mg/mL (≈ 0.152 mM); in series [1] (pH 6.5), 0.26 ± 0.07 mg/mL (≈ 0.282 mM); in series [1] (pH 7.5), 0.25 ± 0.03 mg/mL (≈ 0.271 mM); in series [1] (pH 8.5), 0.17 ± 0.04 mg/mL (≈ 0.184 mM).

Take `CC(C)[C@H](NC(=O)[C@@H](NC(=O)[C@H](Cc1ccccc1)NC(=O)[C@@H](NC(=O)[C@@H](NC(=O)[C@H](Cc1ccccc1)NC(=O)[C@H](CO)NC(=O)[C@H](C)NC(=O)[C@@H](N)CCCCN)[C@@H](C)O)[C@@H](C)O)[C@@H](C)O)C(=O)N[C@H](C(=O)N[C@@H](CCCCN)C(=O)NCC(=O)N[C@@H](CO)C(=O)O)[C@@H](C)O` [SEQ ID NO.4] (H-KASFTTFTVTKGS-OH): the solubility thermodynamic at 3 min is 25.4 ± 0.8 mg/mL (≈ 18.5 mM) in series [1] (pH 4.5); 4 ± 0.2 mg/mL (≈ 2.91 mM) in series [1] (pH 5.5); 5.9 ± 0.4 mg/mL (≈ 4.29 mM) in series [1] (pH 6.5); 16.7 ± 0.5 mg/mL (≈ 12.1 mM) in series [1] (pH 7.5); 10.8 ± 1.1 mg/mL (≈ 7.86 mM) in series [1] (pH 8.5). In addition, the Appearance of solutions entry in series [2] (pH 4.5, 5 mg/ml) is given as “Clear”; in series [2] (pH 4.5, 10 mg/ml), “Clear”; in series [2] (pH 4.5, 15 mg/ml), “Clear”; in series [2] (pH 4.5, 20 mg/ml) it was “Clear”; in series [2] (pH 4.5, 25 mg/ml) it was “Clear”; in series [2] (pH 7.5, 5 mg/ml), “Clear”. Moreover, the Appearance of solutions result in series [2] (pH 7.5, 10 mg/ml) was “Clear”; in series [2] (pH 8.5, 5 mg/ml), “Clear”; in series [2] (pH 8.5, 10 mg/ml) it was “Clear”.

`CC(C)[C@H](NC(=O)[C@@H](NC(=O)[C@H](Cc1ccccc1)NC(=O)[C@@H](NC(=O)[C@@H](NC(=O)[C@H](Cc1ccccc1)NC(=O)[C@H](CO)NC(=O)[C@H](C)NC(=O)[C@@H](N)CCCN)[C@@H](C)O)[C@@H](C)O)[C@@H](C)O)C(=O)N[C@H](C(=O)N[C@@H](CCCN)C(=O)N[C@@H](CO)C(N)=O)[C@@H](C)O` [SEQ ID NO.10, OASFTTFTVTOS-NH2] (H-[Orn]ASFTTFTVT[Orn]S-NH2): the solubility thermodynamic at 3 min came to 33.9 ± 0.9 mg/mL (≈ 26.3 mM) in series [1] (pH 4.5); 3.6 ± 0.8 mg/mL (≈ 2.79 mM) in series [1] (pH 5.5); 5.5 ± 0.7 mg/mL (≈ 4.27 mM) in series [1] (pH 6.5); 19.1 ± 0.1 mg/mL (≈ 14.8 mM) in series [1] (pH 7.5); 14.6 ± 1.6 mg/mL (≈ 11.3 mM) in series [1] (pH 8.5). Moreover, the Appearance of solutions entry in series [2] (pH 4.5, 5 mg/ml) is reported as “Clear”; in series [2] (pH 4.5, 10 mg/ml) it was “Clear”; in series [2] (pH 4.5, 15 mg/ml) it was “Clear”; in series [2] (pH 4.5, 20 mg/ml), “Clear”; in series [2] (pH 4.5, 25 mg/ml), “Clear”; in series [2] (pH 7.5, 5 mg/ml), “Clear”. In addition, the Appearance of solutions result in series [2] (pH 7.5, 10 mg/ml) is “Clear”; in series [2] (pH 7.5, 15 mg/ml) it was “Clear”; in series [2] (pH 7.5, 20 mg/ml), “Clear”; in series [2] (pH 8.5, 5 mg/ml) it was “Clear”; in series [2] (pH 8.5, 10 mg/ml) it was “Clear”; in series [2] (pH 8.5, 15 mg/ml), “Clear”.

In the case of `CC(=O)N[C@H](C)C(=O)N[C@H](C)C(=O)N[C@@H](CCC(=O)O)C(=O)NCC(=O)N[C@@H](CCCCN)C(=O)N[C@@H](C)C(=O)N[C@@H](CO)C(=O)N[C@@H](Cc1ccccc1)C(=O)N[C@H](C(=O)N[C@H](C(=O)N[C@@H](Cc1ccccc1)C(=O)N[C@H](C(=O)N[C@H](C(=O)N[C@H](C(=O)N[C@@H](CCCCN)C(=O)NCC(=O)N[C@@H](CO)C(=O)N[C@H](C)C(=O)N[C@H](C)C(N)=O)[C@@H](C)O)C(C)C)[C@@H](C)O)[C@@H](C)O)[C@@H](C)O` [SEQ ID NO.8] (Ac-[dA][dA]EGKASFTTFTVTKGS[dA][dA]-NH2), in series [1] (pH 4.5), the solubility at 3 min is at least 24.2 mg/mL. Further, the solubility thermodynamic at 3 min was found to be 23.6 ± 0.6 mg/mL (≈ 12.5 mM) in series [1] (pH 5.5), 27.3 ± 1.2 mg/mL (≈ 14.5 mM) in series [1] (pH 6.5), 28.3 ± 2.2 mg/mL (≈ 15 mM) in series [1] (pH 7.5) and 20.6 ± 2.4 mg/mL (≈ 10.9 mM) in series [1] (pH 8.5). Further, the Appearance of solutions entry is “Clear” in series [2] (pH 4.5, 5 mg/ml); “Clear” in series [2] (pH 4.5, 10 mg/ml); “Clear” in series [2] (pH 4.5, 15 mg/ml); “Clear” in series [2] (pH 4.5, 20 mg/ml); “Gel” in series [2] (pH 4.5, 25 mg/ml); “Clear” in series [2] (pH 5.5, 5 mg/ml). For the same compound, the Appearance of solutions entry in series [2] (pH 7.5, 5 mg/ml) was “Clear”; in series [2] (pH 7.5, 10 mg/ml), “Clear”; in series [2] (pH 7.5, 15 mg/ml), “Clear”; in series [2] (pH 8.5, 5 mg/ml), “Clear”; in series [2] (pH 8.5, 10 mg/ml), “Clear”; in series [2] (pH 8.5, 15 mg/ml), “Clear”. For the same compound, in series [2] (pH 8.5, 20 mg/ml), the Appearance of solutions entry is “Clear”.

Regarding `CC(C)[C@H](N)C(=O)N[C@H](C(=O)N[C@@H](CCCCN)C(=O)N[C@@H](Cc1ccc(O)cc1)C(=O)N[C@@H](Cc1c[nH]c2ccccc12)C(=O)N[C@@H](Cc1ccccc1)C(=O)N[C@@H](Cc1ccc(O)cc1)C(=O)N[C@@H](CCCNC(=N)N)C(N)=O)[C@@H](C)O` [SEQ ID NO.22] (H-VTKYWFYR-NH2), the solubility thermodynamic at 3 min in series [1] (pH 4.5) is 57.2 ± 9.1 mg/mL (≈ 49.2 mM); in series [1] (pH 5.5) it was 2.98 ± 0.1 mg/mL (≈ 2.57 mM); in series [1] (pH 6.5), 3.49 ± 0.6 mg/mL (≈ 3.01 mM); in series [1] (pH 7.5) it was 61.5 ± 1.7 mg/mL (≈ 53 mM); in series [1] (pH 8.5), 29.1 ± 3.5 mg/mL (≈ 25.1 mM). For the same compound, the Appearance of solutions result in series [2] (pH 4.5, 5 mg/ml) is on record as “Clear”; in series [2] (pH 4.5, 10 mg/ml) it was “Clear”; in series [2] (pH 4.5, 15 mg/ml), “Clear”; in series [2] (pH 4.5, 20 mg/ml) it was “Clear”; in series [2] (pH 4.5, 25 mg/ml), “Clear”; in series [2] (pH 4.5, 30 mg/ml), “Clear”. Moreover, the Appearance of solutions result in series [2] (pH 4.5, 35 mg/ml) is given as “Clear”; in series [2] (pH 4.5, 40 mg/ml), “Clear”; in series [2] (pH 4.5, 45 mg/ml), “Clear”; in series [2] (pH 4.5, 50 mg/ml), “Clear”; in series [2] (pH 4.5, 55 mg/ml), “Clear”; in series [2] (pH 4.5, 60 mg/ml), “Clear”. In addition, the Appearance of solutions entry is “Clear” in series [2] (pH 7.5, 5 mg/ml); “Clear” in series [2] (pH 7.5, 10 mg/ml); “Clear” in series [2] (pH 7.5, 15 mg/ml); “Clear” in series [2] (pH 7.5, 20 mg/ml); “Clear” in series [2] (pH 7.5, 25 mg/ml); “Clear” in series [2] (pH 7.5, 30 mg/ml). In addition, the Appearance of solutions entry is reported as “Clear” in series [2] (pH 7.5, 35 mg/ml); “Clear” in series [2] (pH 7.5, 40 mg/ml); “Clear” in series [2] (pH 7.5, 45 mg/ml); “Clear” in series [2] (pH 7.5, 50 mg/ml); “Clear” in series [2] (pH 7.5, 55 mg/ml); “Clear” in series [2] (pH 7.5, 60 mg/ml). For the same compound, the Appearance of solutions entry was “Turbid” in series [2] (pH 7.5, 65 mg/ml); “Clear” in series [2] (pH 8.5, 5 mg/ml); “Clear” in series [2] (pH 8.5, 10 mg/ml); “Clear” in series [2] (pH 8.5, 15 mg/ml); “Clear” in series [2] (pH 8.5, 20 mg/ml).

Regarding `CC(C)[C@H](NC(=O)[C@@H](NC(=O)[C@H](Cc1ccccc1)NC(=O)[C@@H](NC(=O)[C@@H](NC(=O)[C@H](Cc1ccccc1)NC(=O)[C@H](CO)NC(=O)[C@H](C)NC(=O)[C@H](CCCCN)NC(=O)CNC(=O)[C@H](CCC(=O)O)NC(=O)[C@@H](C)NC(=O)[C@@H](C)N)[C@@H](C)O)[C@@H](C)O)[C@@H](C)O)C(=O)N[C@H](C(=O)N[C@@H](CCCCN)C(=O)NCC(=O)N[C@@H](CO)C(=O)N[C@H](C)C(=O)N[C@H](C)C(N)=O)[C@@H](C)O` [SEQ ID NO.7] (H-[dA][dA]EGKASFTTFTVTKGS[dA][dA]-NH2), the solubility at 3 min is at least 32 mg/mL in series [1] (pH 4.5), at least 30.5 mg/mL in series [1] (pH 6.5), at least 35.3 mg/mL in series [1] (pH 7.5) and at least 23.8 mg/mL in series [1] (pH 8.5). Besides, in series [1] (pH 5.5), the solubility thermodynamic at 3 min amounted to 22.3 ± 0.1 mg/mL (≈ 12.1 mM). The Appearance of solutions result in series [2] (pH 4.5, 5 mg/ml) is “Clear”; in series [2] (pH 4.5, 10 mg/ml) it was “Clear”; in series [2] (pH 4.5, 15 mg/ml), “Clear”; in series [2] (pH 4.5, 20 mg/ml), “Clear”; in series [2] (pH 4.5, 25 mg/ml) it was “Clear”; in series [2] (pH 4.5, 40 mg/ml), “Gel”. Also, the Appearance of solutions result in series [2] (pH 5.5, 5 mg/ml) is reported as “Clear”; in series [2] (pH 5.5, 10 mg/ml), “Clear”; in series [2] (pH 5.5, 15 mg/ml), “Clear”; in series [2] (pH 7.5, 5 mg/ml), “Clear”; in series [2] (pH 7.5, 10 mg/ml) it was “Clear”; in series [2] (pH 7.5, 15 mg/ml), “Clear”. For the same compound, the Appearance of solutions result in series [2] (pH 7.5, 20 mg/ml) is “Clear”; in series [2] (pH 7.5, 25 mg/ml), “Clear”; in series [2] (pH 8.5, 5 mg/ml) it was “Clear”; in series [2] (pH 8.5, 10 mg/ml) it was “Clear”; in series [2] (pH 8.5, 15 mg/ml), “Clear”; in series [2] (pH 8.5, 20 mg/ml), “Clear”. The Appearance of solutions entry in series [2] (pH 8.5, 25 mg/ml) is given as “Clear”.

(Values after patent US12280088B2, “Dry powder formulation of caveolin-1 peptides and methods of use thereof” (BOARD OF REGENTS, THE UNIVERSITY OF TEXAS SYSTEM, priority 2018, dated 2025).)
